Laboratory results published in PubChem BioAssay (NCI).
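Dose response: 5 concentrations. Exposure: 48 h. Format: 96-well plates. Endpoint: linear interpolation; highest concentration if not reached. GI50 is the concentration that inhibits growth by half. TGI marks complete inhibition of growth.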

Tests used:
Assay in all cases: growth of human tumour cells (NCI), 48 h
A549 NSCLC = tested on: A549 NSCLC
CAKI-1 renal = tested on: CAKI-1 renal
HT29 colon = tested on: HT29 colon
M14 melanoma = tested on: M14 melanoma
MDA-MB-231 breast = tested on: MDA-MB-231 breast
NCI/ADR-RES ovarian = tested on: NCI/ADR-RES ovarian
PC-3 prostate = tested on: PC-3 prostate
SR leukemia = tested on: SR leukemia
U251 CNS = tested on: U251 CNS
UO-31 renal = tested on: UO-31 renal

Row | SMILES | GI50 (A549 NSCLC) [µM] | TGI (A549 NSCLC) [µM] | GI50 (CAKI-1 renal) [µM] | TGI (CAKI-1 renal) [µM] | GI50 (HT29 colon) [µM] | TGI (HT29 colon) [µM] | GI50 (M14 melanoma) [µM] | TGI (M14 melanoma) [µM] | GI50 (MDA-MB-231 breast) [µM] | TGI (MDA-MB-231 breast) [µM] | GI50 (NCI/ADR-RES ovarian) [µM] | TGI (NCI/ADR-RES ovarian) [µM] | GI50 (PC-3 prostate) [µM] | TGI (PC-3 prostate) [µM] | GI50 (SR leukemia) [µM] | TGI (SR leukemia) [µM] | GI50 (U251 CNS) [µM] | TGI (U251 CNS) [µM] | GI50 (UO-31 renal) [µM] | TGI (UO-31 renal) [µM]
1 | COc1ccc(C(=O)c2ccc(OC)c(OC)c2OC)cc1 | 2.01 | > 100 | 1.21 | > 100 | 0.465 | 33.5 | 1.32 | 71.2 | 3.63 | > 100 | 0.693 | 7.8 | 3.21 | > 100 | 0.347 | > 100 | 0.725 | > 100 | 4.65 | > 100
2 | NC(CSC(c1ccccc1)(c1ccccc1)c1ccc(Cl)cc1)C(=O)O (configuration not stated) | 0.468 | > 62 | 0.37 |  | 0.347 | 6.92 | 0.0322 | 0.132 | 0.442 | 35.8 | 0.712 | 7.3 | 0.342 | 32.6 | 0.121 | 5.93 | 0.0978 | 18.1 | 6.13 | > 83.4
3 | CC(=O)Nc1ccc(Sc2ccc([N+](=O)[O-])o2)cc1 | 6.37 | 23.3 | 1.41 | 3.06 | 1.56 | 3.25 | 2.08 | 4.09 | 2.18 | 4.95 | 2.88 | 11.3 | 2.23 | 6.58 | 2.8 | 12.6 | 3.06 | 11 | 3.9 | 13
4 | COc1ccc(/C(Cl)=C(\C=O)c2ccc([N+](=O)[O-])cc2)cc1OC |  | > 100 |  | 26.4 |  | > 30.5 |  | 43.5 |  | 83.9 |  | 53.3 |  | 48.1 |  | 83.3 |  | 20.2 |  | 28.9
5 | NC(=NCCCOc1ccc(Cl)cc1)Nc1ccc(Cl)cc1 | 3.48 | 12.7 | 2.77 | 9.11 | 2.12 | 5.95 | 1.67 | 3.39 | 1.97 | 4.56 | 3.03 | 9.92 | 2.1 | 6.29 | 2.17 | 5.9 | 2.65 | 8.36 | 2.17 | 8.1
6 | CCCCCC(O)C1C(=O)OC(C)C(O)/C=C/C=C/C=C/C=C\C=C(\C)C(O)CC(O)CC(O)CC(O)CC(O)CC(O)CC1O (configuration not stated) | > 100 | > 100 | > 100 | > 100 | > 100 | > 100 | > 100 | > 100 | > 100 | > 100 | > 100 | > 100 | > 100 | > 100 | > 100 | > 100 | > 100 | > 100 | > 100 | > 100
7 | COc1ccc(Nn2c(SCC(=O)Nc3nc(-c4ccc(Cl)cc4)cs3)nc(C)c2C)cc1 | 3.32 | > 100 | 2.16 | > 100 | 4.61 | 50.4 | 3.02 | > 100 | 8.37 | > 100 | 2.89 | > 100 | 2.65 | > 100 | 7.02 | > 100 | 4.03 | > 100 | 2.62 | > 100
8 | C=C(C)[C@@H]1CC[C@]2(C)[C@H](C(=O)C=C3[C@@H]4C[C@](C)(C(=O)N5CCN(C)CC5)CC[C@]4(C)CC[C@]32C)[C@@]1(C)CCC#N | 7.12 | 14.5 | 6.27 | 12.5 | 2.38 | 8.49 | 6.86 | 14.1 | 7.58 | 14.6 | 6.83 | 13.9 | 3.17 | 10.4 | 1.78 | 9.07 | 6.05 | 12.7 | 5.37 | 11.3
9 | C/C(=N\NC(=O)c1ccncc1)c1ccc2ccccc2c1O |  | > 100 |  | > 84.5 |  | > 58.6 |  | 38.2 |  | > 91 |  | > 54.3 |  | 96.9 |  | 32 |  | > 62.2 |  | 38.5
10 | CCN(CC)CCCNc1cccc2c(SCc3ccccc3)ccnc12 | 1.73 | 3.33 | 1.59 | 3.21 | 0.907 | 2.3 | 1.96 | 3.6 | 1.01 | 2.48 | 1.96 | 5.6 | 1.86 | 4.88 | 1.79 | 4.47 | 1.69 | 3.25 | 0.828 | 2.44
11 | CC(=O)OC1CC(n2cc(F)c(=O)[nH]c2=O)OC1CO (configuration not stated) |  | > 90.8 |  | > 100 |  | > 100 |  | 45.6 |  | > 100 |  | > 100 |  | > 100 |  | > 100 |  | > 100 |  | > 92.6
12 | COc1ccc(NC(=O)n2nc(N)c3ccccc32)cc1OC | 45.8 | > 100 | > 100 | > 100 | 48.2 | > 100 | 65 | > 100 | 53.6 | > 100 | 37.6 | > 100 | 35.5 | > 100 | 29.3 | > 100 | 61.7 | > 100 | 28.5 | > 100
13 | CC(C)CCOc1ccc(-c2n[nH]c(C(F)(F)F)c2-c2cncc(C#N)c2)c(O)c1 | 2.24 | 12 | 3.17 | 13.6 | 2.92 | 14.1 | 2.49 | 9.13 | 2.43 | 6.43 | 2.2 | 7.35 | 2.12 | > 100 | 2.01 | 11.8 | 2 | 8.4 | 1.98 | 7.61
14 | CN(C)c1ccc(/C=C(/NC(=O)c2ccccc2)c2nc3ccc(Cl)cc3[nH]2)cc1 |  | > 100 |  | > 100 |  | 78.5 |  | > 100 | 28.4 | > 95.3 | 30.7 | > 100 | 29.2 | > 100 |  | > 89.4 |  | > 100 |  | > 100
15 | O=[N+]([O-])c1ccc(-c2nc(-c3ccccc3)c(-c3ccccc3)n2-c2ccccc2)cc1 | 3.01 | 12.6 | 3.04 | > 28.4 | 1.75 | 3.37 | 3.57 | 16 | 2.36 | 7.04 | 2.68 | 7.88 | 2.74 | > 31.1 | 6.2 | > 100 | 2.74 | 10.7 | 1.99 | 6.67
16 | CCSCC(N)C(=O)O (configuration not stated) |  | > 100 |  | > 100 |  | > 100 |  | > 100 |  | > 100 |  | > 100 |  | > 100 |  | > 100 |  | > 100 |  | > 100
17 | O=C1OCC(c2cccs2)=C1Cl | 41.1 | > 100 | > 100 | > 100 | 62.4 | > 100 | > 100 | > 100 | 24.7 | 98.2 | 48.1 | > 100 | > 100 | > 100 | > 100 | > 100 | 52.9 | > 100 | 89 | > 100
18 | CC(C)[C@@]12C[C@@H](OC(=O)[C@H]3CO3)[C@@](C)(O1)[C@@H]1CC[C@@H](C)[C@H]1[C@@H]2OC(=O)/C=C/c1ccccc1 | 16.7 | 54.6 | 6.83 | > 100 | 27.6 | > 100 | 27 | > 100 | 12.9 | 38.6 | 0.799 | 35.9 | 9.59 | > 88.1 | 24.7 | > 100 | 22.9 | > 80.6 | 0.177 | 0.416
